In brackets after ≈: the same amount, converted by molar mass. Marks after values point to notes of the source that are not given here.
Assays:
Type in all cases: physicochemical
[1] = Chiral acid salt screen: approximate solubility of starting material in solvents; details: ambient temperature, 3 days
Method: INT 1f salts (50-60 mg) were weighed into 4 ml vials. Solvent (~0.2-1.0 mL) was added to each vial, and the vials were stirred at ambient temperature for 3 days. Additional solvent was added to vials with thick slurries, and additional salts were added to vials with clear solutions.
In this example, the resolution of INT 1g and Compound 1 via chiral salts is summarized.

[2] = Solubility in anisole at various temperatures
Source text: The solubility of racemic INT 1f (recrystallized from anisole) in anisole at various temperatures was investigated (Table 28).
The solubility of (S)-INT 1f/(R)-CSA salt in anisole at various temperatures was also investigated

[3] = Solubility of INT 1b in organic solvents; details: most organic solvents (FIG. 1)
Source text: FIG. 1 is a graph illustrating the solubility of INT 1b in organic solvents, including heptane, toluene, xylenes, isopropyl acetate (IPAc), ethyl acetate (EtOAc), methyl ethyl ketone (MEK), methyl t-butyl ether (MTBE), dichloromethane (DCM), methanol (MeOH), ethanol (EtOH), isopropanol (iPrOH), acetonitrile (MeCN), water, 5 M H2SO4, and 1 M H2SO4.

[4] = Aromatic solvent screen: solubility of INT 1f/(R)-CSA salt
Source text: Following the encouraging result employing anisole as the solvent and switching to (R)-CSA to afford the desired diastereomer, the following common aromatic solvents were screened: 1,3-dimethoxybenzene;
2-, 3-, and 4-methyanisoles; o, m, and p-xylenes; and α,α,α-trifluorotoluene (Table 18). […] In addition to anisole, 4-methylanisole and 1,3-dimethoxybenzene also afforded enantioenriched crystalline solids with enantiomeric ratios (e.r.) of 90:10 and 87:13, respectively. However, the highest e.r. was obtained with anisole (92:8).

Row | SMILES | Approximate Solubility of Starting Material ([1]; 1,4-Dioxane) | Approximate Solubility of Starting Material ([1]; Acetone:water (9:1)) | Approximate Solubility of Starting Material ([1]; Anisole) | Approximate Solubility of Starting Material ([1]; DCM) | Approximate Solubility of Starting Material ([1]; EtOAc) | Approximate Solubility of Starting Material ([1]; EtOH:Heptane (1:1)) | Approximate Solubility of Starting Material ([1]; EtOH) | Approximate Solubility of Starting Material ([1]; MeCN) | Approximate Solubility of Starting Material ([1]; THF) | Approximate Solubility of Starting Material ([1]; Toluene) | other results
1 | CC1(C)C2CCC1(CS(=O)(=O)O)C(=O)C2Br.COc1ccc(C)c(-n2c(N)c(C#N)c3cc(C)c(C)nc32)c1C.O | Highly soluble | Highly soluble | Soluble | Highly soluble | Very soluble | Highly soluble | Very soluble | Highly soluble | Highly soluble | Soluble | 
2 | COc1ccc(C)c(-n2c(N)c(C#N)c3cc(C)c(C)nc32)c1C.O=P1(O)Oc2ccc3ccccc3c2-c2c(ccc3ccccc23)O1 | Highly soluble | Very soluble | Very soluble | Highly soluble | Soluble | Soluble | Very soluble | Soluble | Highly soluble | Very soluble | 
3 | COc1ccc(C)c(-n2c(N)c(C#N)c3cc(C)c(C)nc32)c1C.Cc1ccc(C(=O)O[C@H](C(=O)O)[C@H](OC(=O)c2ccc(C)cc2)C(=O)O)cc1 | Very soluble | Soluble | Soluble | Very soluble | Soluble | Soluble | Soluble | Soluble | Very soluble | Soluble | 
4 | COc1ccc(C)c(-n2c(N)c(C#N)c3cc(C)c(C)nc32)c1C (racemic) [INT 1f, 2-Amino-1-(3-methoxy-2,6-dimethylphenyl)-5,6-dimethyl-1H-pyrrolo[2,3-b]-pyridine-3-carbonitrile] |  |  |  |  |  |  |  |  |  |  | Solubility in anisole ([2]; racemic, crystal form recrystallized from anisole, 25° C.): 14.01 mg/mL (≈ 43.7 mM); Solubility in anisole ([2]; racemic, crystal form recrystallized from anisole, 30° C.): 17.72 mg/mL (≈ 55.3 mM); Solubility in anisole ([2]; racemic, crystal form recrystallized from anisole, 40° C.): 21.26 mg/mL (≈ 66.4 mM); Solubility in anisole ([2]; racemic, crystal form recrystallized from anisole, 50° C.): 25.99 mg/mL (≈ 81.1 mM); Solubility in anisole ([2]; racemic, crystal form recrystallized from anisole, 60° C.): 46.5 mg/mL (≈ 145 mM)
5 | CC1(C)[C@H]2CC[C@]1(CS(=O)(=O)O)C(=O)C2.COc1ccc(C)c(-n2c(N)c(C#N)c3cc(C)c(C)nc32)c1C [(S)-INT 1f/(R)-CSA, (S)-2-Ammonium-1-(3-methoxy-2,6-dimethylphenyl)-5,6-dimethyl-1H-pyrrolo[2,3-b]-pyridine-3-carbonitrile/(R)-CSA] |  |  |  |  |  |  |  |  |  |  | Solubility in anisole ([2]; salt, 21° C.): 2.39 mg/mL; Solubility in anisole ([2]; salt, 30° C.): 3.78* mg/mL; Solubility in anisole ([2]; salt, 40° C.): 3.37 mg/mL; Solubility in anisole ([2]; salt, 50° C.): 4.20 mg/mL; Solubility in anisole ([2]; salt, 60° C.): 7.29 mg/mL
6 | Cc1cc2c(C(N)=O)c(N)n(-c3c(C)ccc(O)c3C)c2nc1C [Compound 1/Acid d] |  |  | Partially soluble | Partially soluble |  | Partially soluble |  |  |  |  | 
7 | Cc1cc2c(C(N)=O)c(N)n(-c3c(C)ccc(O)c3C)c2nc1C [Compound 1/Acid f] |  | Soluble | Soluble | Partially soluble |  | Soluble | Partially soluble | Partially soluble | Soluble |  | 
8 | Cc1cc2c(C(N)=O)c(N)n(-c3c(C)ccc(O)c3C)c2nc1C [Compound 1/Acid h] |  | Soluble |  | Partially soluble |  |  | Soluble |  |  |  | 
9 | Cc1cc(Br)c(=O)[nH]c1C [INT 1b] |  |  |  |  |  |  |  |  |  |  | solubility in most organic solvents [3]: poor solubility
10 | COc1ccc(C)c(-n2c(N)c(C#N)c3cc(C)c(C)nc32)c1C.O=C(O[C@H](C(=O)O)[C@H](OC(=O)c1ccccc1)C(=O)O)c1ccccc1 [INT 1f/(+)-2,3-Dibenzoyl-D-tartaric Acid] | Highly soluble | Soluble | Soluble | Highly soluble | Soluble | Soluble | Soluble | Soluble | Highly soluble | Soluble | 
11 | CC1(C)C2CC[C@]1(CS(=O)(=O)O)C(=O)C2.COc1ccc(C)c(-n2c(N)c(C#N)c3cc(C)c(C)nc32)c1C [INT 1f/(R)-CSA] |  |  |  |  |  |  |  |  |  |  | solubility ([4]; 1,3-dimethoxybenzene and anisole): high solubility; solubility ([4]; 2-, 3-, 4-methyanisole with heating): good solubility; solubility ([4]; other aromatic solvents (xylenes, α,α,α-trifluorotoluene)): poor solubility
12 | CC1(C)C2CC[C@@]1(CS(=O)(=O)O)C(=O)C2.COc1ccc(C)c(-n2c(N)c(C#N)c3cc(C)c(C)nc32)c1C [INT 1f/(S)-CSA] | Soluble | Highly soluble | Very soluble | Very soluble | Soluble | Soluble | Very soluble | Highly soluble | Very soluble | Highly soluble | 
13 | COc1ccc(C)c(-n2c(N)c(C#N)c3cc(C)c(C)nc32)c1C.O=P1(O)Oc2c(-c3c(C4CCCCC4)cc(C4CCCCC4)cc3C3CCCCC3)cc3ccccc3c2-c2c(c(-c3c(C4CCCCC4)cc(C4CCCCC4)cc3C3CCCCC3)cc3ccccc23)O1 [INT 1f/(S)-TCYP] | Soluble | Soluble | Very soluble | Highly soluble | Highly soluble | Soluble | Very soluble | Very soluble | Highly soluble | Very soluble | 
14 | CC(C)c1cc(C(C)C)c(-c2cc3ccccc3c3c2OP(=O)(O)Oc2c(-c4c(C(C)C)cc(C(C)C)cc4C(C)C)cc4ccccc4c2-3)c(C(C)C)c1.COc1ccc(C)c(-n2c(N)c(C#N)c3cc(C)c(C)nc32)c1C [INT 1f/(S)-TRIP] | Highly soluble | Highly soluble | Very soluble | Highly soluble | Very soluble | Soluble | Soluble | Soluble | Highly soluble | Highly soluble | 
